Where only a bound is given, the exact number is not on record here.

Test [1] has as its system PMA-differentiated THP-1 cells. In words: IL-1β production in PMA-differentiated THP-1 cells stimulated with gramicidin (hTHP-1 assay containing 2% fetal bovine serum; Procedures 1 and 2). In kind it is cell-based, human. The method in brief: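 Human monocytic THP-1 cells, matured overnight with PMA at 20 ng/ml, are seeded in low-serum (2% FBS) RPMI. Test compounds, at final concentrations from 100 down to 0.0017 μM, precede gramicidin (5 μM, 2 h) by one hour. Released IL-1β is then determined by HTRF.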

In test [2] the test system is PMA-differentiated THP-1 cells. The test can be described thus: hTHP-1 assay containing 10% fetal bovine serum (IL-1β production, Tables B5 and B6). In kind it is cell-based, human. In outline: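 IL-1β release from PMA-differentiated THP-1 macrophage-like cells was triggered by 5 μM gramicidin for 2 h after 1 h compound exposure, then measured by HTRF.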
Setting [3] is: Homo sapiens, THP-1, read-out: hTHP-1 IC50 in 2% FBS, hTHP-1 assay containing 2% fetal bovine serum, Table B5.
Setting [4] is: Homo sapiens, THP-1, read-out: hTHP-1 IC50 in 10% FBS, hTHP-1 assay containing 10% fetal bovine serum, Table B5.

Turning to `CCn1cc(F)c(S(N)(=O)=NC(=O)Nc2c(C)c(C(F)(F)F)nc3c2C(C)CC3)n1` (single isomer, unassigned) [Compound 1100d, (S, S) or (S, R)-N′-((3,5-dimethyl-2-(trifluoromethyl)-6,7-dihydro-5H-cyclopenta[b]pyridin-4-yl)carbamoyl)-1-ethyl-4-fluoro-1H-pyrazole-3-sulfonimidamide], the concentration for half-maximal inhibition (IC50) (in general, the concentration at which inhibition is half-maximal) is over 30000 nM in test [1] (Homo sapiens, THP-1, read-out: hTHP-1 IC50 in 2% FBS, 2% fetal bovine serum, Table B5, value printed as a bound, not a class symbol) and over 30000 nM in test [2] (Homo sapiens, THP-1, read-out: hTHP-1 IC50 in 10% FBS, 10% fetal bovine serum, Table B5, value printed as a bound, not a class symbol).

In the case of `CC(C)n1cc(F)c(S(N)(=O)=NC(=O)Nc2c3c(nc(C4CC4)c2C2CC2)CCC3)n1` (single isomer, unassigned) [Compound 1103a, (R) or (S)-N′-((2,3-dicyclopropyl-6,7-dihydro-5H-cyclopenta[b]pyridin-4-yl)carbamoyl)-4-fluoro-1-isopropyl-1H-pyrazole-3-sulfonimidamide], the half-inhibitory concentration (IC50) lay within 40 to 200 nM in test [1] (read-out: hTHP-1 IC50 in 2% FBS, hTHP-1 assay containing 2% fetal bovine serum, Table B5, listed as 815) and 8 to 40 nM in test [2] (read-out: hTHP-1 IC50 in 10% FBS, hTHP-1 assay containing 10% fetal bovine serum, Table B5, listed as 815).

Turning to `CC(C)n1cc(F)c(S(N)(=O)=NC(=O)Nc2c3c(nc4c2CCC42CC2)CCC3)n1` (stereo not drawn) [Compound 1102, 4-Fluoro-1-isopropyl-N′-((1′,5′,6′,7′-tetrahydro-2′H-spiro [cyclopropane-1,3′-dicyclopenta[b,e]pyridin]-8′-yl)carbamoyl)-1H-pyrazole-3-sulfonimidamide], the 50% inhibitory concentration (IC50) in test [1] (setting [3]) and in test [2] (setting [4]) was 8 to 40 nM throughout.

On to `CCn1cc(F)c([S@](N)(=O)=NC(=O)Nc2c(C)c(C(F)(F)F)nc3c2[C@H](C)CC3)n1` (single isomer, unassigned) [Compound 1100a, (R, R) or (R, S)-N′-((3,5-dimethyl-2-(trifluoromethyl)-6,7-dihydro-5H-cyclopenta[b]pyridin-4-yl)carbamoyl)-1-ethyl-4-fluoro-1H-pyrazole-3-sulfonimidamide], for which the half-inhibitory concentration (IC50) in test [1] (setting [3]) lay within 5000 to 30000 nM; in test [2] (setting [4]) it was 1000 to 5000 nM.

Turning to `CC(C)n1cc(F)c(S(N)(=O)=NC(=O)Nc2c3c(nc4c2CCC42CC2)CCC3)n1` (single isomer, unassigned) [Compound 1102b, (S) or (R)-4-Fluoro-1-isopropyl-N′-((1′,5′,6′,7′-tetrahydro-2′H-spiro [cyclopropane-1,3′-dicyclopenta[b,e]pyridin]-8′-yl)carbamoyl)-1H-pyrazole-3-sulfonimidamide], the concentration for half-maximal inhibition (IC50) in test [1] (read-out: hTHP-1 IC50 in 2% FBS, hTHP-1 assay containing 2% fetal bovine serum, Table B5, listed as 814) is 1000 to 5000 nM; in test [2] (read-out: hTHP-1 IC50 in 10% FBS, hTHP-1 assay containing 10% fetal bovine serum, Table B5, listed as 814), 1000 to 5000 nM.

`CCn1cc(F)c(S(N)(=O)=NC(=O)Nc2c(C)c(C(F)(F)F)nc3c2CC(C)C3)n1` (single isomer, unassigned) [Compound 1101c, (S, S) or (S, R)-N′-((3,6-dimethyl-2-(trifluoromethyl)-6,7-dihydro-5H-cyclopenta[b]pyridin-4-yl)carbamoyl)-1-ethyl-4-fluoro-1H-pyrazole-3-sulfonimidamide]: the IC50 lay in the range of 5000 to 30000 nM in test [1] (read-out: hTHP-1 IC50 in 2% FBS, hTHP-1 assay containing 2% fetal bovine serum, Table B5, listed as 823) and 5000 to 30000 nM in test [2] (read-out: hTHP-1 IC50 in 10% FBS, hTHP-1 assay containing 10% fetal bovine serum, Table B5, listed as 823).

Values taken from patent US20230031406A1, “COMPOUNDS AND COMPOSITIONS FOR TREATING CONDITIONS ASSOCIATED WITH NLRP ACTIVITY” (Novartis AG, priority 2018, published 2023).
